Reference: patent US20250241939A1, “NUCLEIC ACID-BASED DELIVERY SYSTEMS AND USES THEREOF” (Kodikaz Therapeutic Solutions, Inc., priority 2022, published 2025)

System: MIA (pancreatic cancer) cell genome
Assay: ctDNA coculture with MIA cells, whole genome sequencing: genomic insertion sites, transposons at insertion points and SNVs (pancreatic cancer)
Assay type: cell-based, human
Conditions: for blast orientation / blast chr / Transposon orientation / Distance from insertion / Location relative to insertion: TABLE 8, pancreatic cancer co-culture; for blast orientation: BLAST alignment orientation; for blast chr: chromosome with the longest result for BLAST analysis of the full contig; for Transposon orientation: compared with the human reference genome; for Distance from insertion: distance between insertion and the transposon (0 if they overlap); for Location relative to insertion: location of the transposon relative to the insertion on the contig; for Location: identified genomic insertion site, chromosome; for No. SNP: number of single nucleotide variants (SNVs or SNPs) identified, polynucleotides for pancreatic cancer cells
Description: The integration of ctDNAs into the host cell genome was evaluated. ctDNA was extracted from patient plasma, cultured for 24 hours with cells of a matching cancer cell type or non-matching cancer cell type, and whole genome sequencing was performed. The cell lines used were MM1s (multiple myeloma, MM) and MIA (pancreatic cancer, PC).
The sequence data was used to reconstruct genomic contigs for each experimental condition by de novo assembly. […] Coculture contigs carrying a ctDNA insertion were identified using NucDiff analysis.
Experiments were designed to identify the presence of transposons in ctDNA fragments. To map ctDNA genomic junctions more precisely, a PACBIO probe was ligated to multiple myeloma and pancreatic cancer ctDNA samples to label their 5′ and 3′ ends. Whole-genome sequencing of DNA from cells with ctDNA genomic integration was done using the Illumina platform. De novo assembly was performed on the sequencing output. ctDNA contigs containing PACBIO adaptor were then matched to those contigs containing inserted ctDNA sequences identified in the coculture experiments. Transposable element on ctDNA sequences at the insertion points (<100 nucleotides from transition point between cell and ctDNA) were detected and classified using RepeatMaster.
A search was conducted for transposons that preferentially target cells of matching tumor types. The lists of transposons identified at the ctDNA insertion point in matching and mismatched coculture conditions were compared (e.g., MM ctDNA with MM cells or PC cells). Transposons were selected that were uniquely or preferentially inserted in the matching conditions.
Whole-genome sequencing and Whole exon sequencing: ctDNA was extracted from 10 MM and 10 PC patients. DNA from CD138 (+) cells and from cell lines used in in vitro experiments (MM1s and MIA) was extracted using Blood & Cell Culture DNA Mini Kit (Quiagen, MD). DNA from […] paraffin embedded pancreatic tumors was obtained using QIAamp DNA FFPE Tissue Kit Print (Qiagen, MD).
After extraction, ctDNA was ligated to the PACBIO adaptor ([…]) using the ABM DNA Library Prep Kit for Illumina Sequencing (Applied Biological Materials Inc. Canada). PACBio-labeled ctDNA and regular ctDNA were subjected to standard methods for library preparation and sequencing using Illumina and Agilent protocols, respectively. Applied Biological Materials Inc. prepared the libraries and performed whole-exon and -genome sequencing.
Identification of transposable elements and its nucleotide variants: To determine the locations of transposable-like regions in contigs, sequences were analyzed and transposable elements (TEs) were identified and classified using RepeatMasker version 4.1.0 and the Dfam database (release 3.1) of repetitive DNA families was used as a reference for identifying repeats in ctDNA contig sequences that were part of qualifying structural events. For each repeat sequence identified by RepeatMasker, the overall frequency of the specific repeat (e.g., for AluSp or L1) and their parent class (e.g., SINE) was computed.
Once the TE elements were identified, hit repeats/TE sequences, unique contigs for all samples, and insertion sequence were aligned with MAFFT software version. Mutations in TE sequences were identified by comparison of nucleotides at each position in the multiple sequence alignment with the “Biostrings” R package (version 4.1). A position was considered to contain mutation if the substitution was present in contigs of all samples.

For L1ME4b, the blast orientation was “Plus/Plus”, the blast chr was “chr7” and the Transposon orientation was “direct”. For the same molecule, the Distance from insertion was “+1930” and the “Location relative to insertion” value was “right”.

Mam_R4 was tested, and the blast orientation was “Plus/Plus”, the blast chr was “chr9” and the Transposon orientation was “direct”. The Distance from insertion was 0 and the “Location relative to insertion” value was “intersect”.

B1: 30 (nucleic acid, listed as Homo sapiens)
chain: AATATTAATTTGGGCTCTCCAGAGAAACAGAACCAATAGATTACACATAGATATATAGAAAGACAGTTATTACAAGGAATTGGCTCACAGGATTATGTAGGCTGAGAAGTCCCATGACCTGCCGTCTGCAAGCTGGAGACCCAGGAAAGCCGGTGGTGTAGTTCCAGTCCGAGTTGGGAGGTCTGAGAATCGGGAGAGCTGACAGAGTAAGCTCTAGTTGCAGCCTGGAGTCCAGAGGGCAAAGAACACCTATGTCCCATCTCAAGCACGGTCAGGCGTCCCAGCTCAAGCAGAGAGAAAGAAGACTTTCCTGCTCAGCCTCCTTGCTCTAAGCAGCCTCCCGACGGATTGGATGAAGCTCACCCACGCTGGGGAGGGCAGCCACCTTCACTCAGTCCACCAATTCAAATGCTAATCTCATCCAGAAACACCCTCACAGGCACACCCAGAAATAATGTTTAGCCACATATCTGGGCATCCTGAGGACCAGTCAAATTGACTCATAAGTCTCACCATCATA
In the case of B1, the Gene (TABLE 4, gene at identified genomic insertion site) is reported as “RAB7A”, the Location (TABLE 4) is reported as “Chr3” and the “No. SNP” value (TABLE 4) is reported as 1.

B2: 33 (nucleic acid, listed as Homo sapiens)
chain: TGTGTTAGTCAGGATAGGCTAACCTCTGTAACACACAACCCCAATTTTTCAGTGGCTCAGAACAATAGGAGTTTCTTTCTTACTCATGTAAAGTCCAGGTGTGGCAGAAACTTGCGGGGGAGAAAGTCTACTCCACAGCATCACTCAGGGACCCAGGCTCCTGCCTTACGGTGGTTCCGCCATTTTCCAGGGCCTCGGAGTCCTCCATCCCATCTCCTCCATTCAGCTGGTGGATGTGGGAGGAGAGCGTGTATGAAAGACCACACAGAAGCTTTTTTTGGGCCAGGCTTTGAGACGGCGCACATCAGTTTCGCTCTTGTTGCCCAGGCTGGAGTGCAATGGCGCAATCTCGGCTCACCGCAAAAGACACTGGGAAATTTGGTCTGGCCATGTGTCTAGGAAGCAGAGGAGATGGGGTTTCATAAACTCCTGAACTCTCTCTACCACG
For B2, the Location (TABLE 4) was “Chr21” and the “No. SNP” value (TABLE 4) was 4.

B3: 35 (nucleic acid, listed as Homo sapiens)
chain: AAGATGGGGAGGATGGTGGTGGAGCAGGCTGGGGAGATGAGGAGCTTGAGGGGCCTAGGAGCTAACCACCCATTCACTGTTTATGGGTGGGGTGGCTCCGGGCAGGTGGCCTGACCCCTCTAAACCTCAGTTTCCCCATCTGTAAAATGGGAGTAATTGTACCTGCCTCACGGGCATGTAGCAGGTGGGAGAGAGAGTAATACGGGCAAGACGTCTAGTGCAGTGGCTGGAACATAACAAGCACCCAGCAAGTGGTGGCCCCATTGCT
For B3, the Location (TABLE 4) was “Chr14” and the “No. SNP” value (TABLE 4) was 0.

B4: 32 (nucleic acid, listed as Homo sapiens)
chain: CTCCATGTTCTGACCTCAGGTGATCTGCCCGCCTCCGCCTCCCATAAGTTCCTTCTGCACCTATTCCATTCCATCTGCAATGTCATCCTGGCCAACCTGTGAATGGGTATAGCAGGATAGTAAGTTAGTCCCAGTGTTTAGGCAGACTCCATAGACCAGATTTAACGTGTTTGTATAAACCGCATGGCTCGCTCTTACTCAGCCTTCGGGTCGGCCTTAAGATACACAGTTTTAAGAAAAGCATTGTCTTCACTCTTAGTGTAGATCAGGTCCTCCTCNCCCCCANCACGTTATGTCCCTGTCATTGAACATTATACTTTTATGAAGAATTGTGAGCTGTCTGAGATTTTACCTTACTTGCAAACTAACAAGTGGGCCTGCCATAGTTTCATGTCTGGCAGAAGACTCCAACAGGTCAGAGATTTTCATCTGTCTTGTTCACTATTGTCTACATAGTGCCTGGAAAAATGCCTGGCACACAGTAAACCCTCAATCAGTATTTTATGAATGAGTGAAC
modifications: misc_difference 279 a, c, t, g, unknown or other; misc_difference 286 a, c, t, g, unknown or other
B4 was tested, and the Location (TABLE 4) was “Chr21” and the “No. SNP” value (TABLE 4) was 5.
